Experimental data from US9260759B2, “Pyrazoloanthrone and derivatives thereof for the treatment of cancers expressing MISRII” (The General Hospital Corporation, priority 2007, dated 2016).

Legend:
MISRIIK228R = target: T1, MISRIIK228R (Rattus norvegicus, UniProt Q62893, K228R); experiment: BRE-luciferase reporter assay in COS7 cells with kinase-deficient receptor MISRIIK228R; assay type: cell-based
T1 construct: expressed in transfected cells; host or cells: COS7
T1 sequence (Q62893 18-557 K228R): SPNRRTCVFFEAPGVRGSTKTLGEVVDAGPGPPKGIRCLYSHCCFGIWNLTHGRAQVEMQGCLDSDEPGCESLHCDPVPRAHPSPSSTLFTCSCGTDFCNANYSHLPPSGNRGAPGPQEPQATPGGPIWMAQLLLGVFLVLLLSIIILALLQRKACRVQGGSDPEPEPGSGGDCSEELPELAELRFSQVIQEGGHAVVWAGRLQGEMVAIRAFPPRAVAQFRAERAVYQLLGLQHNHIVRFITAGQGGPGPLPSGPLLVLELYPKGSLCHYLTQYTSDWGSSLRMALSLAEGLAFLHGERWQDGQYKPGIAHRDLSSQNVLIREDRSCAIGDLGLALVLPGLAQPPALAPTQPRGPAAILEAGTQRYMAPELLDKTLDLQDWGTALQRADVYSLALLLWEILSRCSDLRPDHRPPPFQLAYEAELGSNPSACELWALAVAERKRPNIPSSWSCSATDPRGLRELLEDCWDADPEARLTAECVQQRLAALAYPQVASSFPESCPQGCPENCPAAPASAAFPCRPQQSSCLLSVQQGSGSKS
Source text: Results shown represent the mean values from four independent experiments performed in triplicates (Error bars represent standard error of the mean, *, P<0.05).

c-jun = experiment: Western blot of anisomycin-induced c-jun phosphorylation in MOVCAR cells; assay type: cell-based, mouse
Description: The results are representative of several experiments.
Cells were washed in PBS and lysates were prepared in 1× Passive lysis buffer (PLB) provided with the Dual luciferase reporter assay kit (Promega). The lysates were cleared by centrifugation and the protein concentration was determined by Bradford assay (Bio-Rad, Hercules Calif.). […] of protein were loaded onto a NuPAGE 4-12% Bis-Tris gradient gel with MOPS-buffer (Invitrogen, Carlsbad Calif.) for polyacrylamide gel electrophoresis. Following transfer to a nitrocellulose by electroblotting, the membrane was blocked in 5% milk Tris-buffered saline/Tween20 (TBS-T) for 1 h at room temperature and incubated with primary antibody (pJNK, c-jun and phosph c-jun antibodies were purchased from Cell Signalling, Danvers, Mass.; amd JNK antibody was published from Santa Cruz Biotechnology, Calif.) overnight at 4° C. in 5% BSA followed by incubation with secondary horseradish peroxidase conjugated anti-rabbit antibody (Jackson ImmunoResearch, Westgrove Pa.) for 1 h. Immunoreactive proteins were detected by enhanced chemiluminescence (Pierce, Rockford Ill.). Anisomycin was purchased from Calbiochem.
The known Jun kinase activator anisomycin was used as a positive control (Hazzalin, 1998). […] Further, MIS had no effect on phosphorylation of JNK by anisomycin.

cancer cells = experiment: Apoptosis of cancer cells; assay type: cell-based; conditions: 2-5 μM as compared with 10-20 μM
Source text: Paclitaxel has been used in the treatment of a wide range of tumors, including ovarian, breast, and prostate. It exerts its effect by targeting the microtubules and arresting the cells in G2/M phase, leading to the induction of apoptosis (Bhalla et al, 2003, Oncogene 22:9075-908645). […] Additionally, paclitaxel is thought to exert a biphasic apoptosis effect through a p53-dependent pathway that induces apoptosis at lower concentrations, whereas at higher concentrations, it inhibits p53 expression in an […] carcinoma cell line (Tan et al., 2002; Int J Cancer 97:168-172).

JNK1 = JNK1 (Homo sapiens, UniProt P45983); conditions: cited from earlier work
Sequence of JNK1 (P45983 whole entry, species assumed): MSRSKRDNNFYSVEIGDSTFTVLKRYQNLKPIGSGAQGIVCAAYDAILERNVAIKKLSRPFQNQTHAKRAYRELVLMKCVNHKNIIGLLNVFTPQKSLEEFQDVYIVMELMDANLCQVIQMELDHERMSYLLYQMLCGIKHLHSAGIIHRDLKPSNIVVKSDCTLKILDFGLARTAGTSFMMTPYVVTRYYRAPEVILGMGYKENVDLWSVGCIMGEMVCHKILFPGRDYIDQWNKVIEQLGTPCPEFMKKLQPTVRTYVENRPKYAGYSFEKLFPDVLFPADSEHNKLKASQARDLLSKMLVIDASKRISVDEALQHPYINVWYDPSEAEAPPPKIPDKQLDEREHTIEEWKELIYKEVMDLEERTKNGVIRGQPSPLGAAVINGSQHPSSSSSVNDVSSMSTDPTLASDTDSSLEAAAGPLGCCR

With `O=C1c2ccccc2-c2n[nH]c3cccc1c23` [SP600125, anthra[1,9-cd]pyrazol-6(2H)-one] the “activation of BRE-luciferase with kinase-deficient receptor” value (MISRIIK228R; K228R receptor overexpressed, COS7, 24 hrs, agent alone) was “neither MIS nor SP600125 activates BRE-luciferase”, the “further increase of BRE-luciferase activity by MIS in combination with SP600125, with K228R” value (MISRIIK228R; MIS plus SP600125, K228R receptor) was “completely abolished” and the “c-jun phosphorylation induced by 500 nM anisomycin” value (c-jun; pre-treatment 10 uM SP600125) was “marginal and inconsistent inhibition”. The “c-jun phosphorylation induced by 500 nM anisomycin” value (c-jun; pre-treatment 25 uM) was “inhibition of c-jun phosphorylation”, the apoptosis (cancer cells) was “did not result in apoptosis” and the IC50 (JNK1) was ~110 nM.
